{"source": "patent US8653135B1", "about": "“Alternating sympathomimetic therapy for the treatment of respiratory aliments” (Sovereign Pharmaceuticals, LLC, priority 2007, dated 2014)", "origin": "cited, not measured here", "conditions": "when given in adequate dosages"}
{"smiles": "CNC[C@H](O)c1cccc(O)c1", "note": "[Phenylephrine, phenylephrine]", "values": [{"measurement": "effect on heart rate", "result": "slows the heart rate"}]}
